Data on 16 compounds can be found in paper PMC8460535, “Novel serotonin 5-HT2A receptor antagonists derived from 4-phenylcyclohexane-5-spiro-and 5-methyl-5-phenyl-hydantoin, for use as potential antiplatelet agents” (Pharmacological Reports, 2021).

Values joined by “and” are separate entries in the source; they are usually repeats but may differ in a detail not shown here. Equal values may be shown once. Read-outs that look alike come from different tables or passages of the source.

Data set [1] deals with T1, human 5-HT2A receptor (Homo sapiens, UniProt P28223).
T1 construct: purchased PerkinElmer; host or cells: CHO-K1 cells, stably transfected
T1 sequence (P28223 whole entry): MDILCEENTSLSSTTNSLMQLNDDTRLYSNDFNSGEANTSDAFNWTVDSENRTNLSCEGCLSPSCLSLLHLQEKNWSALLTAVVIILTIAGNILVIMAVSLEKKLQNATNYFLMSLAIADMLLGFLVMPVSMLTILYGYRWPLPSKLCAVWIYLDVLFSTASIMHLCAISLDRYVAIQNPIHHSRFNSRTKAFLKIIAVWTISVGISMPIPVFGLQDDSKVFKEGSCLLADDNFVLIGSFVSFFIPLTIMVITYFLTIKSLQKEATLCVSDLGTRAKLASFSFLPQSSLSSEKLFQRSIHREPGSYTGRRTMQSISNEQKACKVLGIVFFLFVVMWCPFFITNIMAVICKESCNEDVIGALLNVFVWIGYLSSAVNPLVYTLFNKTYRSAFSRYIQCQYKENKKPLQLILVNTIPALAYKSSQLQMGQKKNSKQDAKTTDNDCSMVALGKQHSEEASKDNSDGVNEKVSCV
Briefly: 5-HT2A receptor radioligand binding assay ([3H]-ketanserin, CHO-K1 membranes). To be noted: read-out: Ki [nM] ± SEM. The method, then: Stock solutions of tested compounds (10 mM) were prepared in DMSO. […] Each compound was tested in eight concentrations from 10^–5 to 10^–12 M (final concentration).
Radioligand binding was performed using membranes from CHO-K1 cells stably transfected with the human 5-HT2A receptor (PerkinElmer). All assays were carried out in duplicates. Data were fitted to a one-site curve-fitting equation with Prism 6 (GraphPad Software) and Ki values were estimated from the Cheng − Prusoff equation. The full description of this assay is in Supplementary material.
Mianserin (10 μM) was used to define nonspecific binding. […] The reaction was terminated by rapid filtration through GF/B filter mate presoaked with 0.5% polyethyleneimine for 30 minutes. Ten rapid washes with 200 µl 50 mM Tris buffer (4°C, pH 7.4) were performed using automated harvester system Harvester-96 MACH III FM (Tomtec). […] Radioactivity was counted in MicroBeta2 scintillation counter (PerkinElmer).

The target in data set [2] is T2, 5-HT2A receptors in rat aorta (Rattus norvegicus, UniProt P14842).
T2 construct: Isolated rat aorta was used to determine the antagonistic activity of studied compounds for 5HT2A-receptors; from tissue; host or cells: aortic rings of male Wistar rats, denuded of the endothelium
T2 sequence (P14842 whole entry): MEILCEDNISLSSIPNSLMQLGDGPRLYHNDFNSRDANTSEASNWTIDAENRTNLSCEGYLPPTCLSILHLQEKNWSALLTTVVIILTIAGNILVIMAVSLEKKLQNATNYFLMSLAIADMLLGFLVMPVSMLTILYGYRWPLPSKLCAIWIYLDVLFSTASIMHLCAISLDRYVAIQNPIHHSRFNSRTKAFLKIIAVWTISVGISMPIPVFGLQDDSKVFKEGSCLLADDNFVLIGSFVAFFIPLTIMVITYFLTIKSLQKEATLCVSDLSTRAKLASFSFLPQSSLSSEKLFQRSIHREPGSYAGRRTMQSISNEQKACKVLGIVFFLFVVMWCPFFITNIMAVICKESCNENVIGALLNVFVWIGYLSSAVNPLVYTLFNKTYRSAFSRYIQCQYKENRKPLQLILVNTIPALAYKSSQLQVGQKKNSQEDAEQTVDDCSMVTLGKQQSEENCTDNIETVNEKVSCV
The data set can be described thus: Functional bioassay at 5-HT2A receptors in isolated rat aorta (5-HT-induced contraction). It is filed as cell-based. To be noted: single antagonist concentration, 30 min incubation, read-out: pKB ± SEM a (converted). How it is done: Isolated rat aorta was used to determine the antagonistic activity of studied compounds for 5HT2A-receptors. The male Wistar rats weighting 200–350 g were anesthetized with thiopental sodium (75 mg/kg i.p.) and the aorta was dissected and placed in a Krebs–Henseleit solution (NaCl 118 mM, KCl 4.7 mM, CaCl2 2.25 mM, MgSO4 1.64 mM, KH2PO4 1.18 mM, NaHCO3 24.88 mM, glucose 10 mM, C3H3O3Na 2.2 mM, EDTA 0.05 mM), denuded of the endothelium, cleaned of surrounding fat tissues and cut into 4-mm-long rings. The aortic rings were incubated in 30 ml chambers filled with a Krebs–Henseleit solution at 37 °C and pH 7.4 with constant oxygenation (O2/CO2, 19:1). Two stainless steel stirrups were inserted through the lumen of each aortic segment: one stirrup was attached to the bottom of the chamber and the other to an isometric FDT10-A force–displacement transducer (BIOPAC Systems, Inc., COMMAT Ltd., Turkey). The aortic rings were stretched and maintained at optimal tension of 2 g and allowed to equilibrate for 2 h.
After the equilibration period, the aortic rings were contracted to maximal tension with KCl (60 mM). The depolarizing solution KCl (60 mM) was obtained by equimolar substitution of […]. Then the cumulative concentration–response curves to 5-HT were determined in the absence and presence of antagonist. Tissues were incubated with antagonists for 30 min.
Concentration–response curves were analyzed using GraphPad Prism 6.0 software (GraphPad Software Inc., San Diego, CA, USA). […] Data are the mean ± SEM of three separate experiments. The affinity was estimated with the equation pKB = log(concentration ratio–1)-log(molar antagonist concentration), where the concentration ratio is the ratio of equi-effective agonist concentrations in the absence and in the presence of the antagonist.

The target in data set [3] is T1, human 5-HT2A receptor. Briefly: Aequorin luminescence-based intracellular calcium assay in CHO cells expressing human 5-HT2A. It is filed as cell-based. Conditions: cells expressing human 5-HT2A receptors, antagonist mode vs α-methylserotonin 30 nM; read-out: pKB ± SEM b (converted). The method, then:
Tested and reference compounds were dissolved in DMSO at a concentration of 10^–2 M. Serial dilutions were prepared in 96-well microplate in assay buffer and eight to ten concentrations were tested.
A cellular aequorin-based functional assay was performed with recombinant Chinese hamster ovary cells expressing mitochondrially targeted aequorin, human G-protein-coupled receptors, and the promiscuous G protein α16 for 5-HT2A. The full description of this assay is in Supplementary materials.
A cellular aequorin-based functional assay was performed with recombinant Chinese hamster ovary cells expressing mitochondrially targeted aequorin, human G-protein-coupled receptors and the promiscuous G protein α16 for 5-HT2A. After thawing, cells were transferred to assay buffer (Dulbecco's Modified Eagle Medium/HAM’s F12 with 0.1% protease free bovine serum albumin) and centrifuged. The cell pellet was resuspended in assay buffer and coelenterazine h was added at final concentrations of 5 μM. The cells suspension was incubated at 16°C, protected from light with constant agitation for 16 h and then diluted with assay buffer to the concentration of 120,000 cells/ml. After 1 h of incubation, 50 μl of the cells suspension was dispensed using automatic injectors built into the radiometric and luminescence plate counter MicroBeta2 LumiJET (PerkinElmer, USA) into white opaque 96-well microplates preloaded with test compounds. Immediate light emission generated following calcium mobilization was recorded for 30 s. In antagonist mode, after 30 min of incubation the reference agonist was added to the above assay mix and light emission was recorded again. Final concentration of the reference agonist was equal to EC80 of α-methylserotonin (30 nM).

For data set [4], the system named is whole rat blood aggregation induced by 5-HT and collagen. Briefly: In vitro whole rat blood aggregation induced by 5-HT and sub-threshold collagen. It is filed as cell-based. To be noted: 5-HT 30 μM and collagen 0.8 μg/ml, read-out: b (5-HT + collagen) IC50. The method, then:
(§1) In vitro aggregation assays were performed using freshly drawn whole rat blood with a Multiplate platelet function analyzer (Roche Diagnostic), the five-channel aggregometer based on measurements of electric impedance. Blood was collected from carotid arteries with a hirudin blood tube (Roche Diagnostic). 300 μl of hirudin anticoagulated blood was mixed with 300 μl prewarmed isotonic saline solution containing studied compound or vehicle (deionized water or DMSO 0.1%) and preincubated for 3 min at 37 °C with continuous stirring. Aggregation was induced by adding collagen (Hyphen-Biomed, France) (final concentration 1.6 µg/ml), 5-HT (30 µM) and sub-threshold concentration of collagen (0.8 µg/ml), 5-HT (6 µM) and sub-threshold concentration of ADP (ADP test, Roche Diagnostic), (1.6 µM). The aggregation process was recorded for 6 min. Ketanserin (ketanserin ( +) tartrate salt, Sigma-Aldrich, Germany), sarpogrelate (sarpogrelate hydrochloride, Sigma-Aldrich, Germany), and aspirin (Tocris, UK) were used as reference compounds. The Multiplate software analyzed the area under the curve (AUC) of the clotting process of each measurement and calculated the mean values. Each concentration of studied compounds was tested at least three times. The exact sample size (n value) is presented on Figs. 2–4. Concentration-inhibition curves were constructed and analyzed by non-linear curve fitting using GraphPad Prism 6.0 (GraphPad Software Inc., San Diego, CA, USA).

The subject of data set [5] is whole rat blood aggregation induced by 5-HT and ADP. The data set can be described thus: In vitro whole rat blood aggregation induced by 5-HT and sub-threshold ADP. Conditions: for IC50: 5-HT 6 μM and ADP 1.6 μM, na = not active, read-out: c (5-HT + ADP) IC50. It is filed as cell-based. The method, then:
as §1

In data set [6] the test system is whole rat blood aggregation induced by collagen. Briefly: In vitro whole rat blood aggregation induced by collagen (Multiplate). The data set is classed as cell-based. Conditions: collagen 1.6 μg/ml, na = not active. How it is done: as §1
A further data set deals with 5-HT2A receptor. To be noted: cited from earlier work.
In data set [7] the test system is whole rat blood aggregation induced by 5-HT and ADP. Also noted: method as in PMID 29111111. Conditions: 5-HT 6 μM and ADP 1.6 μM, already published, read-out: c (5-HT + ADP) IC50; cited from earlier work.
[8] abbreviates: literature values, no reference given, read-out: 5-HT2A: Ki of conventional antagonists.

Usually melting point stands for the temperature, or range, at which the solid turns liquid. Consider `O=C(c1ccc(F)cc1)N1CCN(CCN2C(=O)NC3(CCC(c4ccccc4)CC3)C2=O)CC1` (stereo not shown) [Compound 7, 3-(2-(4-(4-Fluorobenzoyl)piperazin-1-yl)ethyl)-8-phenyl-1,3-diazaspiro[4.5]decane-2,4-dione], for which the melting point was 224 to 226 °C.

A word on the Ki: it is a dissociation constant, usually derived from enzyme kinetics or from competition with a known ligand. Broadly, the IC50 is the concentration that gives 50% inhibition. `CC1(c2ccccc2)NC(=O)N(CCCN2CCN(c3ccccc3F)CC2)C1=O` (stereo not shown) [Compound 3, 3-(3-(4-(2-Fluorophenyl)piperazin-1-yl)propyl)-5-methyl-5-phenylimidazolidine-2,4-dione]: the Ki on human 5-HT2A receptor [1] is 516 ± 52 nM. Also, the Kb is 0.216 µM in data set [2]; ~0.175 µM and 0.175 µM at human 5-HT2A receptor [3]. Also, the results for the IC50 in data set [4] and in data set [5] were 17.4 ± 10.9 µM and 37.9 ± 6.5 µM, respectively.

As for `CC1(c2ccccc2)NC(=O)N(CCCN2CCN(C(=O)c3ccc(F)cc3)CC2)C1=O` (stereo not shown) [Compound 6, 3-(3-(4-(4-Fluorobenzoyl)piperazin-1-yl)propyl)-5-methyl-5-phenylimidazolidine-2,4-dione], the melting point lay in the range of 72 to 74 °C.

In data set [6], `CC(=O)Oc1ccccc1C(=O)O` [Aspirin] had an IC50 of 14.5 ± 1.1 µM.

On to `CC1(c2ccccc2)NC(=O)N(CCN2CCN(C(c3ccccc3)c3ccccc3)CC2)C1=O` (stereo not shown) [Compound 2, 3-(2-(4-Benzhydrylpiperazin-1-yl)ethyl)-5-methyl-5-phenylimidazolidine-2,4-dione], for which the Ki at human 5-HT2A receptor [1] came to 450 ± 43.9 nM. Further, the figures for the Kb (in data set [2]; on human 5-HT2A receptor [3]) were 0.69 µM and 1.97 µM, respectively. Also, in data set [4], the IC50 was 140 ± 18.9 µM. Moreover, in [5] (at a concentration of 200 μM), the “inhibitory effect on ADP- and 5-HT-induced blood aggregation” value is given as “did not exhibit any significant inhibitory effect”.

On to `O=S1(=O)c2cccc3cccc(c23)N1CCCN1CCN(c2ccc(F)cc2)CC1` [fananserin, reference compound], for which, at 5-HT2A receptor (setting [8]), the Ki is 0.00037 µM.

Compound `O=C1NC2(CCC(c3ccccc3)CC2)C(=O)N1CCN1CCN(C(c2ccccc2)c2ccccc2)CC1` (stereo not shown) [Compound 8, 3-(2-(4-Benzhydrylpiperazin-1-yl)ethyl)-8-phenyl-1,3-diazaspiro[4.5]decane-2,4-dione] yielded a melting point of 243 to 245 °C.

For `O=C1NC2(CCC(c3ccccc3)CC2)C(=O)N1CCCN1CCN(c2ccccc2F)CC1` (stereo not shown) [Compound 9, 3-(3-(4-(2-Fluorophenyl)piperazin-1-yl)propyl)-8-phenyl-1,3-diazaspiro[4.5]decane-2,4-dione], at human 5-HT2A receptor [1], the Ki was found to be 220 ± 19.6 nM. In addition, the Kb in data set [2] was 0.0959 µM; on human 5-HT2A receptor [3], 1.99 µM. For the same compound, the IC50 in [4] came out at 139 ± 16.1 µM.

`O=C(c1ccc(F)cc1)N1CCN(CCCN2C(=O)NC3(CCC(c4ccccc4)CC3)C2=O)CC1` (stereo not shown) [Compound 12, 3-(3-(4-(4-Fluorobenzoyl)piperazin-1-yl)propyl)-8-phenyl-1,3-diazaspiro[4.5]decane-2,4-dione] displayed a melting point of 203 to 205 °C. Also, at human 5-HT2A receptor [1], the Ki stood at 2580 ± 302 nM.

For the compound `CC1(c2ccccc2)NC(=O)N(CCCN2CCN(c3cccc(F)c3)CC2)C1=O` (stereo not shown) [Compound 4, 3-(3-(4-(3-Fluorophenyl)piperazin-1-yl)propyl)-5-methyl-5-phenylimidazolidine-2,4-dione], the Ki on human 5-HT2A receptor [1] was 340 ± 57 nM. For the same compound, the figures for the Kb (in [2]; at human 5-HT2A receptor [3]) were 0.44 µM and 9.23 µM, respectively. Also, the figures for the IC50 in [4] and in data set [5] were 153 ± 26.4 µM and 83.1 ± 8.1 µM, respectively.

For `O=C1NC2(CCC(c3ccccc3)CC2)C(=O)N1CCCN1CCN(c2cccc(F)c2)CC1` (stereo not shown) [Compound 10, 3-(3-(4-(3-Fluorophenyl)piperazin-1-yl)propyl)-8-phenyl-1,3-diazaspiro[4.5]decane-2,4-dione], at human 5-HT2A receptor [1], the Ki was 297 ± 19.9 nM. Besides, the Kb in data set [2] was 0.501 µM. Further, the IC50 amounted to 94.3 ± 53.5 µM in data set [4] and 119 ± 32.1 µM in data set [5].

`CC1(c2ccccc2)NC(=O)N(CCN2CCN(C(=O)c3ccc(F)cc3)CC2)C1=O` (stereo not shown) [Compound 1, 3-(2-(4-(4-Fluorobenzoyl)piperazin-1-yl)ethyl)-5-methyl-5-phenylimidazolidine-2,4-dione] displayed a melting point of 117 to 119 °C.

Turning to `CC1(c2ccccc2)NC(=O)N(CCCN2CCN(c3ccc(F)cc3)CC2)C1=O` (stereo not shown) [Compound 5, 3-(3-(4-(4-Fluorophenyl)piperazin-1-yl)propyl)-5-methyl-5-phenylimidazolidine-2,4-dione], at human 5-HT2A receptor [1], the Ki was determined as 48 ± 4.9 nM. For the same compound, the Kb in data set [2] was 0.11 µM; at human 5-HT2A receptor [3], 9.29 µM. For the same compound, the figures for the IC50 in data set [4] and in [5] were 127 ± 32.7 µM and 124 ± 36.2 µM, respectively.

For `O=C1NC2(CCC(c3ccccc3)CC2)C(=O)N1CCCN1CCN(c2ccc(F)cc2)CC1` (stereo not shown) [Compound 11, 3-(3-(4-(4-Fluorophenyl)piperazin-1-yl)propyl)-8-phenyl-1,3-diazaspiro[4.5]decane-2,4-dione], at human 5-HT2A receptor [1], the Ki was 21 ± 1.7 nM. The Kb is 0.0372 µM in data set [2] and 0.175 µM at human 5-HT2A receptor [3]. The IC50 was found to be 91.3 ± 7.1 µM in data set [4] and 140 ± 44.6 µM in data set [5].

`CC1(c2ccccc2)NC(=O)N(CCCN2CCN(c3ccccc3)CC2)C1=O` (stereo not shown) [compound B]: at 5-HT2A receptor (5-HT2A receptors, previous studies, read-out: Ki (5-HT2A) of earlier hydantoin leads), the Ki is 0.069 µM.

On to `O=C(c1ccc(F)cc1)C1CCN(CCn2c(=O)[nH]c3ccccc3c2=O)CC1` [Ketanserin, reference compound], for which the results for the IC50 in data set [6], in [4] and in [7] were 32.1 ± 3 µM, 1.3 µM and 9.7 ± 2.1 µM, respectively. The Ki on 5-HT2A receptor (setting [8]) was 0.002 µM.
